{"source": "patent US20220273584A1", "about": "“Film Formulation Comprising Carriers” (Klaria Pharma Holding AB, priority 2019, published 2022)", "origin": "cited, not measured here", "conditions": "at a concentration of 1-10%"}
{"smiles": "CCCCCCCC/C=C\\CCCCCCCC(=O)O", "note": "[Oleic acid, oleic acid]", "values": [{"measurement": "permeability with porcine buccal epithelium", "value": "enhanced permeability"}]}
